How the values were obtained:
U-87 MG = test: OncoPanel cell proliferation assay, U-87 MG; format: cell-based, human
Description: (§1) Cells were grown in RPMI 1640, 10% FBS, 2 mM L-alanyl-L-glutamine, 1 mM Na pyruvate, or a special medium. Cells were seeded into 384-well plates and incubated in a humidified atmosphere of 5% CO2 at 37° C. Compounds were added the day following cell seeding. At the same time, a time zero untreated cell plate was generated. After a 3-day incubation period, cells were fixed and stained to allow fluorescence imaging of nuclei. Compounds (1 mM stock solutions) were serially diluted in half-log steps from the highest test concentration ([…]), and assayed over 10 concentrations with a maximum assay concentration of 0.1% DMSO. Automated fluorescence microscopy was carried out using a Molecular Devices ImageXpress Micro XL high-content imager, and images were collected with a 4× objective. 16-bit TIFF images were acquired and analyzed with MetaXpress 5.1.0.41 software.
(§2) Cell proliferation was measured by the fluorescence intensity of an incorporated nuclear dye. The output is referred to as the relative cell count, where the measured nuclear intensity is transformed to percent of control (POC) using the following formula: […]
(§3) Cellular response parameters were calculated using nonlinear regression to a sigmoidal single-site dose response model:
(§4) Where y is a response measured at concentration x, A and B are the lower and upper limits of the response, C is the concentration at the response midpoint (EC50), and D is the Hill Slope (Ref. 1).
(§5) EC50 is the test compound concentration at the curve inflection point or half the effective response (parameter C of the fitted curve solution). GI50 is the concentration needed to reduce the observed growth by half (midway between the curve maximum and the time zero value). “Cell Count Activity Area” is an estimate of the integrated area above the curve (Barretina, et al. The Cancer Cell Line Encyclopedia enables predictive modelling of anticancer drug sensitivity. Nature 483: 603-607). […] In rare instances, values <0 or >10 may be observed. […] Curve-fitting, calculations, and report generation was performed using a custom data reduction engine and MathIQ based software (AIM).

SW684 = test: OncoPanel cell proliferation assay, SW684; format: cell-based, human; conditions: for Relative cell count (%) Mean: SW684
Description: as §1, with “Cells” for “Cells were grown in RPMI 1640, 10% FBS, 2 mM L-alanyl-L-glutamine, 1 mM Na pyruvate, or a special medium. Cells”
as §2, §3, §4
GI50 is the concentration needed to reduce the observed growth by half (midway between the curve maximum and the time zero value). […] In rare instances, values <0 or >10 may be observed. […] Curve-fitting, calculations, and report generation was performed using a custom data reduction engine and MathIQ based software (AIM).

NCIH446 = test: OncoPanel cell proliferation assay, NCIH446; format: cell-based, human; conditions: for Relative cell count (%) Mean: NCIH446
Description: as §1, §2, §3, §4, §5

CAMA-1 = test: OncoPanel cell proliferation assay, CAMA-1; conditions: for Relative cell count (%) Mean: CAMA-1
Description: (§6) Cells were seeded into 384-well plates and incubated in a humidified atmosphere of 5% CO2 at 37° C. Compounds were added the day following cell seeding. At the same time, a time zero untreated cell plate was generated. After a 3-day incubation period, cells were fixed and stained to allow fluorescence imaging of nuclei. Compounds (1 mM stock solutions) were serially diluted in half-log steps from the highest test concentration (1 micromol), and assayed over 10 concentrations with a maximum assay concentration of 0.1% DMSO. Automated fluorescence microscopy was carried out using a Molecular Devices ImageXpress Micro XL high-content imager, and images were collected with a 4× objective. 16-bit TIFF images were acquired and analyzed with MetaXpress 5.1.0.41 software.

PC-3 = test: OncoPanel cell proliferation assay, PC-3; conditions: for Relative cell count (%) Mean: PC-3
Description: as §6

T24 = test: OncoPanel cell proliferation assay, T24; format: cell-based, human; conditions: for Relative cell count (%) Mean: T24
Description: as §1, §2, §3, §4, §5

Q: CO[C@H]1C[C@@H]2CC[C@@H](C)[C@@](O)(O2)C(=O)C(=O)N2CCCC[C@H]2C(=O)O[C@H]([C@H](C)C[C@@H]2C[C@@H]3C[C@H]2C[C@H]3O)CC(=O)[C@H](C)/C=C(\C)[C@@H](O)[C@@H](OC)C(=O)[C@H](C)C[C@H](C)/C=C/C=C/C=C/1C [Formula I, 37R-hydroxynorbornylrapamycin] was tested. Which “Relative cell count (%) Mean” value (U-87 MG; 1.00E+00 microM) did it give?
A: 51.2%

Q: And the “Relative cell count (%) Mean” value (U-87 MG; 1.00E−01 microM)?
A: 54.5%

Q: What about the “Relative cell count (%) Mean” value (U-87 MG; 1.00E−02 microM) of the same molecule?
A: 54.7%

Q: And the “Relative cell count (%) Mean” value (U-87 MG; 1.00E−03 microM)?
A: 64.8%

Q: What about the “Relative cell count (%) Mean” value (U-87 MG; 1.01E−04 microM) of the same molecule?
A: 87.3%

Q: And the “Relative cell count (%) Mean” value (U-87 MG; 3.16E−01 microM)?
A: 51.6%

Q: What about the “Relative cell count (%) Mean” value (U-87 MG; 3.17E−02 microM) of the same molecule?
A: 50.4%

Q: What about the “Relative cell count (%) Mean” value (U-87 MG; 3.17E−03 microM) of the same molecule?
A: 58.9%

Q: And the “Relative cell count (%) Mean” value (U-87 MG; 3.18E−04 microM)?
A: 71.8%

Q: What about the “Relative cell count (%) Mean” value (U-87 MG; 3.18E−05 microM) of the same molecule?
A: 93.7%

Q: What about the EC50 (U-87 MG; Homo sapiens, 72 h, 3-day incubation, read-out: Cell Count EC50) of the same molecule?
A: 0.206 nM

Q: What about the GI50 (U-87 MG; Homo sapiens, 72 h, 3-day incubation, read-out: Cell Count GI50) of the same molecule?
A: 0.509 nM

Q: And the IC50 (U-87 MG; Homo sapiens, 72 h, 3-day incubation, read-out: Cell Count IC50)?
A: 48.8 nM

Q: And the “Cell Count Activity Area” value (U-87 MG; scale 0-10)?
A: 3.92

Q: And the EC50 (SW684; Homo sapiens, 72 h, SW684, 3-day incubation, read-out: Cell Count EC50)?
A: 0.477 nM

Q: What about the GI50 (SW684; Homo sapiens, 72 h, SW684, 3-day incubation, read-out: Cell Count GI50) of the same molecule?
A: 0.286 nM

Q: And the IC50 (SW684; Homo sapiens, 72 h, SW684, 3-day incubation, read-out: Cell Count IC50)?
A: 21.1 nM

Q: What about the “Cell Count Activity Area” value (SW684; SW684, scale 0-10) of the same molecule?
A: 3.93

Q: And the “Relative cell count (%) Mean” value (SW684; 1.00E+00 microM)?
A: 44.1%

Q: What about the “Relative cell count (%) Mean” value (SW684; 1.00E−01 microM) of the same molecule?
A: 51.0%

Q: What about the “Relative cell count (%) Mean” value (SW684; 1.00E−02 microM) of the same molecule?
A: 55.0%

Q: What about the “Relative cell count (%) Mean” value (SW684; 1.00E−03 microM) of the same molecule?
A: 68.8%

Q: And the “Relative cell count (%) Mean” value (SW684; 1.01E−04 microM)?
A: 89.3%

Q: What about the “Relative cell count (%) Mean” value (SW684; 3.16E−01 microM) of the same molecule?
A: 47.1%

Q: What about the “Relative cell count (%) Mean” value (SW684; 3.17E−02 microM) of the same molecule?
A: 52.7%

Q: What about the “Relative cell count (%) Mean” value (SW684; 3.17E−03 microM) of the same molecule?
A: 60.7%

Q: What about the “Relative cell count (%) Mean” value (SW684; 3.18E−04 microM) of the same molecule?
A: 77.8%

Q: And the “Relative cell count (%) Mean” value (SW684; 3.18E−05 microM)?
A: 91.9%

Q: And the EC50 (NCIH446; Homo sapiens, NCI-H446, 72 h, NCIH446, 3-day incubation, read-out: Cell Count EC50)?
A: 1.37 nM

Q: What about the GI50 (NCIH446; Homo sapiens, NCI-H446, 72 h, NCIH446, 3-day incubation, read-out: Cell Count GI50) of the same molecule?
A: 75.5 nM

Q: And the IC50 (NCIH446; Homo sapiens, NCI-H446, 72 h, NCIH446, 3-day incubation, read-out: Cell Count IC50)?
A: > 1000 nM

Q: And the “Cell Count Activity Area” value (NCIH446; NCIH446, scale 0-10)?
A: 1.96

Q: And the “Relative cell count (%) Mean” value (NCIH446; 1.00E+00 microM)?
A: 69.7%

Q: What about the “Relative cell count (%) Mean” value (NCIH446; 1.00E−01 microM) of the same molecule?
A: 77.0%

Q: And the “Relative cell count (%) Mean” value (NCIH446; 1.00E−02 microM)?
A: 75.9%

Q: And the “Relative cell count (%) Mean” value (NCIH446; 1.00E−03 microM)?
A: 88.1%

Q: What about the “Relative cell count (%) Mean” value (NCIH446; 1.01E−04 microM) of the same molecule?
A: 102.8%

Q: And the “Relative cell count (%) Mean” value (NCIH446; 3.16E−01 microM)?
A: 71.2%

Q: What about the “Relative cell count (%) Mean” value (NCIH446; 3.17E−02 microM) of the same molecule?
A: 85.0%

Q: And the “Relative cell count (%) Mean” value (NCIH446; 3.17E−03 microM)?
A: 82.3%

Q: And the “Relative cell count (%) Mean” value (NCIH446; 3.18E−04 microM)?
A: 100.1%

Q: And the “Relative cell count (%) Mean” value (NCIH446; 3.18E−05 microM)?
A: 99.4%

Q: And the “Cell Count Activity Area” value (CAMA-1; CAMA-1, scale 0-10)?
A: 4.42

Q: What about the “Relative cell count (%) Mean” value (CAMA-1; 1.00E+00 microM) of the same molecule?
A: 44.1%

Q: What about the “Relative cell count (%) Mean” value (CAMA-1; 1.00E−01 microM) of the same molecule?
A: 45.8%

Q: What about the “Relative cell count (%) Mean” value (CAMA-1; 1.00E−02 microM) of the same molecule?
A: 51.2%

Q: What about the “Relative cell count (%) Mean” value (CAMA-1; 1.00E−03 microM) of the same molecule?
A: 53.9%

Q: What about the “Relative cell count (%) Mean” value (CAMA-1; 1.01E−04 microM) of the same molecule?
A: 86.0%

Q: And the “Relative cell count (%) Mean” value (CAMA-1; 3.16E−01 microM)?
A: 46.2%

Q: What about the “Relative cell count (%) Mean” value (CAMA-1; 3.17E−02 microM) of the same molecule?
A: 48.8%

Q: And the “Relative cell count (%) Mean” value (CAMA-1; 3.17E−03 microM)?
A: 50.2%

Q: What about the “Relative cell count (%) Mean” value (CAMA-1; 3.18E−04 microM) of the same molecule?
A: 66.1%

Q: What about the “Relative cell count (%) Mean” value (CAMA-1; 3.18E−05 microM) of the same molecule?
A: 97.5%

Q: And the EC50 (CAMA-1; Homo sapiens, CAMA-1, 72 h, read-out: Cell Count EC50)?
A: 0.174 nM

Q: What about the GI50 (CAMA-1; Homo sapiens, CAMA-1, 72 h, read-out: Cell Count GI50) of the same molecule?
A: 0.239 nM

Q: What about the IC50 (CAMA-1; Homo sapiens, CAMA-1, 72 h, read-out: Cell Count IC50) of the same molecule?
A: 1.28 nM

Q: And the EC50 (PC-3; Homo sapiens, PC-3, 72 h, read-out: Cell Count EC50)?
A: 0.346 nM

Q: And the GI50 (PC-3; Homo sapiens, PC-3, 72 h, read-out: Cell Count GI50)?
A: 1.89 nM

Q: And the IC50 (PC-3; Homo sapiens, PC-3, 72 h, read-out: Cell Count IC50)?
A: 9.55 nM

Q: What about the “Cell Count Activity Area” value (PC-3; PC-3, scale 0-10) of the same molecule?
A: 3.97

Q: What about the “Relative cell count (%) Mean” value (PC-3; 1.00E+00 microM) of the same molecule?
A: 42.2%

Q: What about the “Relative cell count (%) Mean” value (PC-3; 1.00E−01 microM) of the same molecule?
A: 47.9%

Q: And the “Relative cell count (%) Mean” value (PC-3; 1.00E−02 microM)?
A: 53.6%

Q: And the “Relative cell count (%) Mean” value (PC-3; 1.00E−03 microM)?
A: 59.2%

Q: And the “Relative cell count (%) Mean” value (PC-3; 1.01E−04 microM)?
A: 87.3%

Q: And the “Relative cell count (%) Mean” value (PC-3; 3.16E−01 microM)?
A: 43.8%

Q: And the “Relative cell count (%) Mean” value (PC-3; 3.17E−02 microM)?
A: 47.1%

Q: And the “Relative cell count (%) Mean” value (PC-3; 3.17E−03 microM)?
A: 59.0%

Q: And the “Relative cell count (%) Mean” value (PC-3; 3.18E−04 microM)?
A: 69.1%

Q: What about the “Relative cell count (%) Mean” value (PC-3; 3.18E−05 microM) of the same molecule?
A: 93.7%

Q: And the EC50 (T24; Homo sapiens, T-24, 72 h, T24, 3-day incubation, read-out: Cell Count EC50)?
A: 0.102 nM

Q: What about the GI50 (T24; Homo sapiens, T-24, 72 h, T24, 3-day incubation, read-out: Cell Count GI50) of the same molecule?
A: 0.475 nM

Q: What about the IC50 (T24; Homo sapiens, T-24, 72 h, T24, 3-day incubation, read-out: Cell Count IC50) of the same molecule?
A: 0.905 nM

Q: And the “Cell Count Activity Area” value (T24; T24, scale 0-10)?
A: 4.92

Q: What about the “Relative cell count (%) Mean” value (T24; 1.00E+00 microM) of the same molecule?
A: 38.7%

Q: What about the “Relative cell count (%) Mean” value (T24; 1.00E−01 microM) of the same molecule?
A: 41.3%

Q: And the “Relative cell count (%) Mean” value (T24; 1.00E−02 microM)?
A: 43.9%

Q: What about the “Relative cell count (%) Mean” value (T24; 1.00E−03 microM) of the same molecule?
A: 49.5%

Q: And the “Relative cell count (%) Mean” value (T24; 1.01E−04 microM)?
A: 68.7%

Q: And the “Relative cell count (%) Mean” value (T24; 3.16E−01 microM)?
A: 37.1%

Q: And the “Relative cell count (%) Mean” value (T24; 3.17E−02 microM)?
A: 42.0%

Q: And the “Relative cell count (%) Mean” value (T24; 3.17E−03 microM)?
A: 46.0%

Q: What about the “Relative cell count (%) Mean” value (T24; 3.18E−04 microM) of the same molecule?
A: 57.0%

Q: What about the “Relative cell count (%) Mean” value (T24; 3.18E−05 microM) of the same molecule?
A: 84.1%

— patent publication US20210024542A1 (Torcept Therapeutics, Inc., priority 2018, published 2021)
